Here are results for 19 compounds from PubChem BioAssay AID248 (DTP/NCI, 2004).

Toxic doses and inconclusive results are not listed.

The subject of this experiment is L1210 leukemia ip in BDF1 mice, survival T/C. Kind of experiment: NCI In Vivo Anticancer Drug Screen. Data for tumor model L1210 Leukemia (intraperitoneal) in B6D2F1 (BDF1) mice. The note with it: endpoint: mean survival time, higher = longer survival. The procedure, abridged:
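Value reflects the ratio of survival in compound-treated mice to survival in vehicle-treated controls, with both groups carrying the same transplanted tumor.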

Where [1] appears, read: dose: 100.0 mg/kg/injection, schedule: Q04DX003 (ip), vehicle: Klucel (hydroxypropylcellulose) (HPC).
The mark [2] stands for this setting: dose: 200.0 mg/kg/injection, schedule: Q04DX003 (ip), vehicle: Klucel (hydroxypropylcellulose) (HPC).
Setting [3] is: dose: 400.0 mg/kg/injection, schedule: Q04DX003 (ip), vehicle: Klucel (hydroxypropylcellulose) (HPC).
Setting [4] is: dose: 100.0 mg/kg/injection, schedule: Q01DX009 (ip), vehicle: Klucel (hydroxypropylcellulose) (HPC).
Setting [5] is: dose: 200.0 mg/kg/injection, schedule: Q01DX009 (ip), vehicle: Klucel (hydroxypropylcellulose) (HPC).
The mark [6] stands for this setting: dose: 400.0 mg/kg/injection, schedule: Q01DX009 (ip), vehicle: Klucel (hydroxypropylcellulose) (HPC).
The mark [7] stands for this setting: dose: 100.0 mg/kg/injection, schedule: Q01DX001 (ip), vehicle: carboxymethylcellulose (CMC).
The mark [8] stands for this setting: dose: 200.0 mg/kg/injection, schedule: Q01DX001 (ip), vehicle: carboxymethylcellulose (CMC).
Setting [9] is: dose: 400.0 mg/kg/injection, schedule: Q01DX001 (ip), vehicle: carboxymethylcellulose (CMC).
Where [10] appears, read: dose: 50.0 mg/kg/injection, schedule: Q01DX001 (ip), vehicle: carboxymethylcellulose (CMC).

Take `Cn1c(=O)c2c(ncn2C)n(C)c1=O`: the T/C (dose: 25.0 mg/kg/injection, schedule: Q01DX Z (ip), vehicle: saline) is 92 % of control; the T/C (dose: 50.0 mg/kg/injection, schedule: Q01DX Z (ip), vehicle: saline) was 90 % of control; the T/C (dose: 100.0 mg/kg/injection, schedule: Q01DX009 (ip), vehicle: saline with Tween-80) is 93 % of control; the T/C (dose: 100.0 mg/kg/injection, schedule: Q01DX Z (ip), vehicle: saline) is 92 % of control; the T/C (dose: 115.0 mg/kg/injection, schedule: Q01DX001 (ip), vehicle: saline) is 97 % of control; the T/C (dose: 175.0 mg/kg/injection, schedule: Q01DX001 (ip), vehicle: saline) is 111 % of control. The T/C was 95 % of control (dose: 200.0 mg/kg/injection, schedule: Q01DX009 (ip), vehicle: saline with Tween-80); 90 % of control (dose: 200.0 mg/kg/injection, schedule: Q01DX Z (ip), vehicle: saline); 103 % of control (dose: 265.0 mg/kg/injection, schedule: Q01DX001 (ip), vehicle: saline).
Consider `CCOP(=O)(OCC)Oc1cc(C)c(C#N)c(C)c1`, for which the T/C (dose: 5.0 mg/kg/injection, schedule: Q01DX001 (ip), vehicle: saline) was 108 % of control; the T/C (dose: 10.0 mg/kg/injection, schedule: Q01DX001 (ip), vehicle: saline) is 108 % of control; the T/C (dose: 20.0 mg/kg/injection, schedule: Q01DX001 (ip), vehicle: saline) is 100 % of control; the T/C (dose: 40.0 mg/kg/injection, schedule: Q01DX001 (ip), vehicle: saline) was 103 % of control.
As to `O=C(Nc1ccc(C(=O)c2ccccc2)cc1)c1ccccc1`, the T/C is, setting by setting: under setting [1], 104 % of control; under setting [2], 108 % of control; under setting [3], 98 % of control.
Consider `COC(=O)N/N=C/c1ccc(NC(C)=O)cc1`, for which the T/C under setting [4] is 95 % of control, the T/C under setting [5] is 101 % of control and the T/C under setting [6] is 97 % of control.
For `CSc1nnn(C(C)(C)C)n1`, the T/C is 100 % of control (dose: 100.0 mg/kg/injection, schedule: Q01DX001 (ip), vehicle: acetone) and 91 % of control (dose: 200.0 mg/kg/injection, schedule: Q01DX001 (ip), vehicle: acetone).
Consider `CCOC(=O)N1CCC(=C(C#N)c2ccccc2)CC1`, for which the T/C was 92 % of control under setting [1] and 92 % of control under setting [2].
Regarding `O=C(COc1ccc(Cl)c(Cl)c1)NCc1ccc([N+](=O)[O-])cc1`, the T/C under setting [1] is 90 % of control, the T/C under setting [2] is 92 % of control and the T/C under setting [3] is 88 % of control.
Consider `CSC1SC(C)CC(C)S1` (configuration not stated), for which the T/C was 95 % of control (dose: 12.5 mg/kg/injection, schedule: Q04DX002 (ip), vehicle: Klucel (hydroxypropylcellulose) (HPC)); 92 % of control (dose: 25.0 mg/kg/injection, schedule: Q04DX002 (ip), vehicle: Klucel (hydroxypropylcellulose) (HPC)); 98 % of control (dose: 50.0 mg/kg/injection, schedule: Q04DX002 (ip), vehicle: Klucel (hydroxypropylcellulose) (HPC)).
As for `O=C(/C(=C/c1ccc(F)cc1)c1ccccc1)c1ccc(O)cc1`, the T/C runs as follows: under setting [7], 92 % of control; under setting [8], 110 % of control; under setting [9], 94 % of control.
With `CC(=O)N1Cc2c(N)nc(N)nc2C1C` (configuration not stated), the T/C under setting [7] is 101 % of control, the T/C under setting [8] is 95 % of control and the T/C under setting [9] was 104 % of control.
For `O=C(c1ccccc1)C(Br)C(c1ccccc1)c1ccccc1` (configuration not stated), the T/C under setting [4] is 94 % of control; the T/C under setting [1] was 104 % of control; the T/C under setting [5] is 94 % of control; the T/C under setting [2] was 104 % of control; the T/C under setting [6] was 100 % of control; the T/C under setting [3] was 98 % of control.
For `O=c1cc(-c2ccccc2)nc(Nc2nc3ccc([N+](=O)[O-])cc3[nH]2)[nH]1`, the T/C was 95 % of control under setting [4]; 100 % of control under setting [1]; 95 % of control under setting [5]; 103 % of control under setting [2]; 87 % of control under setting [6]; 106 % of control under setting [3].
For `Cc1cc(C)c(I)c(C(=O)O)c1`, the T/C runs as follows: (dose: 100.0 mg/kg/injection, schedule: Q04DX003 (ip), vehicle: saline with Tween-80) 95 % of control; (dose: 200.0 mg/kg/injection, schedule: Q04DX003 (ip), vehicle: saline with Tween-80) 104 % of control; (dose: 400.0 mg/kg/injection, schedule: Q04DX003 (ip), vehicle: saline with Tween-80) 104 % of control.
For `CC(=O)Nc1ccc(C=Nc2c(N)n(C)c(=O)n(C)c2=O)cc1`, the T/C was 94 % of control under setting [10], 96 % of control under setting [7], 94 % of control under setting [8] and 90 % of control under setting [9].
With `Cc1noc(NS(=O)(=O)c2ccc(N=NC3SC(=S)NC3=O)cc2)c1C` (configuration not stated), the T/C runs as follows: (dose: 75.0 mg/kg/injection, schedule: Q01DX001 (ip), vehicle: saline) 95 % of control; (dose: 150.0 mg/kg/injection, schedule: Q01DX001 (ip), vehicle: saline) 98 % of control; (dose: 300.0 mg/kg/injection, schedule: Q01DX001 (ip), vehicle: saline) 101 % of control.
As for `CC(=O)OI(OC(C)=O)c1ccccc1`, the T/C under setting [4] was 98 % of control and the T/C under setting [5] was 102 % of control.
For the compound `NP(=O)(N1CC1)N1CC1`, the T/C is 110 % of control (dose: 1.0 mg/kg/injection, schedule: Q01DX001 (ip), vehicle: carboxymethylcellulose (CMC)); 116 % of control (dose: 1.0 mg/kg/injection, schedule: Q01DX015 (ip), vehicle: carboxymethylcellulose (CMC)); 124 % of control (dose: 2.0 mg/kg/injection, schedule: Q01DX001 (ip), vehicle: carboxymethylcellulose (CMC)); 110 % of control (dose: 4.0 mg/kg/injection, schedule: Q01DX001 (ip), vehicle: carboxymethylcellulose (CMC)); 150 % of control (dose: 15.0 mg/kg/injection, schedule: Q01DX001 (ip), vehicle: carboxymethylcellulose (CMC)); 186 % of control (dose: 30.0 mg/kg/injection, schedule: Q01DX001 (ip), vehicle: carboxymethylcellulose (CMC)).
As to `Nc1nc2[nH]ncc2c(=O)[nH]1`, the T/C runs as follows: under setting [10], 104 % of control; under setting [7], 107 % of control; under setting [8], 93 % of control; under setting [9], 96 % of control.
`CC(=O)OCCOC(=O)Nc1cccc2ccccc12`: the T/C (dose: 100.0 mg/kg/injection, schedule: Q04DX002 (ip), vehicle: Klucel (hydroxypropylcellulose) (HPC)) was 100 % of control; the T/C (dose: 200.0 mg/kg/injection, schedule: Q04DX002 (ip), vehicle: Klucel (hydroxypropylcellulose) (HPC)) was 100 % of control; the T/C (dose: 400.0 mg/kg/injection, schedule: Q04DX002 (ip), vehicle: Klucel (hydroxypropylcellulose) (HPC)) was 97 % of control.
